Values quoted from earlier work as cited in publication PMC5454779 (Biochemistry, 2011).

Molecular target: ssDNA
Details: read-out: Kd of cold shock protein A with ssDNA; single OB-fold; ref [9]

In the case of “cold shock protein A: cold shock protein consisting of a single OB-fold”, the Kd is listed as 6 µM.
